In general, EC50 refers to the concentration needed to bring the measured effect to its halfway point.

The structures appear in SMILES notation. Like-named read-outs stand apart in the source and are kept apart here.

The text below walks through data of patent US11084795B2, “CFTR regulators and methods of use thereof” (The Regents of the University of California, priority 2015, dated 2021).

The target in this assay is human wildtype CFTR (Homo sapiens, UniProt P13569). Kind of assay: Fluorescence plate reader assay of iodide influx in FRT cells co-expressing CFTR and YFP halide sensor.
[1] abbreviates: read-out: EC50, variation in the 3-aryl ring, plate reader assay.

Chain of human wildtype CFTR (P13569 whole entry): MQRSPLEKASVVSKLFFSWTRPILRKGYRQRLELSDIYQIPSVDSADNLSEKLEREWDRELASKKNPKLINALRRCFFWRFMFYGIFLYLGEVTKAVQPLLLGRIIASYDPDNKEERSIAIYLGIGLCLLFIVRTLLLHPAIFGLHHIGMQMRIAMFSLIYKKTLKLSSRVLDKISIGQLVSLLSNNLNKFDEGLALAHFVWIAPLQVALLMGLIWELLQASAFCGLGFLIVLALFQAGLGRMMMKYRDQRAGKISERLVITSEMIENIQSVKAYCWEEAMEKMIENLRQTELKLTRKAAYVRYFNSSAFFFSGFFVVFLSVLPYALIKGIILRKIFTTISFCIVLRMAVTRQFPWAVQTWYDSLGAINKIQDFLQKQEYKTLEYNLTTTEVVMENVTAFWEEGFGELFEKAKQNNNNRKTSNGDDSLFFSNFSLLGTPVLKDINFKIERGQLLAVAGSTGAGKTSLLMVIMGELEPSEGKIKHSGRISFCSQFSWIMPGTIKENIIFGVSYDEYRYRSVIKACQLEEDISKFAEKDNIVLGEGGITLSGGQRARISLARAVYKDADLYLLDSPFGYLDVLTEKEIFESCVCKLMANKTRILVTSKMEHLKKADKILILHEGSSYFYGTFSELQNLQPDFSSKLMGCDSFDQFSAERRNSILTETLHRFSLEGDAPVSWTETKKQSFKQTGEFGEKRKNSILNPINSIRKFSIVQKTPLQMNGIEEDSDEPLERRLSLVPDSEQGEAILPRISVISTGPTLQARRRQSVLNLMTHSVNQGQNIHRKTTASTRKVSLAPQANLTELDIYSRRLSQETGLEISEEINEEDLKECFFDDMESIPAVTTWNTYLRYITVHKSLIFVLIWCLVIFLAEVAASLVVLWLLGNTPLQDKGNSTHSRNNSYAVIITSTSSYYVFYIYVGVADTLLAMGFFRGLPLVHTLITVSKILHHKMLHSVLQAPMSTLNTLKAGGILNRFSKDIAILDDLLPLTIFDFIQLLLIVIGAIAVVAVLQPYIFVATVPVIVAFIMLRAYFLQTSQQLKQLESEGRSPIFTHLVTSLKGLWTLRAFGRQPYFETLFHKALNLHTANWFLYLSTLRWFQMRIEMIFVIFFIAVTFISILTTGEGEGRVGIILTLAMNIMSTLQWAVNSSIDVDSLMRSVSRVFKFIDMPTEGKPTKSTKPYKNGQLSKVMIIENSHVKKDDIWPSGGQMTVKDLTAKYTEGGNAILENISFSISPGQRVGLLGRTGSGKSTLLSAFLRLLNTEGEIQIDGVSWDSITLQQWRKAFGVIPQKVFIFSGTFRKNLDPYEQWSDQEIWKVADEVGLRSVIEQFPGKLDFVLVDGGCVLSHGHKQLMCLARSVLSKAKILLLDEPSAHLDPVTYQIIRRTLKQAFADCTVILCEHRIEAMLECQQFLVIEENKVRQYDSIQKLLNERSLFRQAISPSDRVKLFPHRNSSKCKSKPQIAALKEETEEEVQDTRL

For `O=c1c(-c2ccc([N+](=O)[O-])cc2)nc2ccccc2n1Cc1ccccc1` [Compound 1e, 1-Benzyl-3-(4-nitrophenyl)quinoxalin-2(1H)-one], under setting [1], the EC50 is 1000 nM.

With `Nc1ccc([N+](=O)[O-])cc1-c1nc2cc(Br)ccc2n(Cc2ccccc2)c1=O` [CFTRact-J136, 3-(2-Amino-5-nitrophenyl)-1-benzyl-6-bromoquinoxalin-2(1H)-one], the EC50 is 260 nM.

`O=c1c(-c2cccc([N+](=O)[O-])c2)nc2cc(Cl)c(Cl)cc2n1Cc1ccccc1` [Compound 2d, 1-Benzyl-6,7-dichloro-3-(3-nitrophenyl)quinoxalin-2(1H)-one] displayed an EC50 greater than 10000 nM.

`Nc1ccc(Br)cc1-c1nc2ccccc2n(Cc2ccccc2)c1=O` [CFTRact-J134, 3-(2-Amino-5-bromophenyl)-1-benzylquinoxalin-2(1H)-one] gave an EC50 of 310 nM.

For the molecule `Cc1ccc2c(c1)nc(-c1cc(F)ccc1N)c(=O)n2Cc1ccccc1` [CFTRact-J140, 3-(2-Amino-5-fluorophenyl)-1-benzyl-6-methylquinoxalin-2(1H)-one], the 50% effective concentration (EC50) is 700 nM.

For the molecule `O=c1c(-c2ccc(F)c([N+](=O)[O-])c2)nc2ccccc2n1Cc1ccccc1` [Compound 1i, 1-Benzyl-3-(4-fluoro-3-nitrophenyl)quinoxalin-2(1H)-one], the EC50 under setting [1] is 690 nM.

Regarding `O=c1c(-c2cccc([N+](=O)[O-])c2)nc2ccccc2n1Cc1cccc2ccccc12` [Compound 3f, 1-(Naphthalen-1-ylmethyl)-3-(3-nitrophenyl)quinoxalin-2(1H)-one], the “EC50, variation in the N1-substituent” value (plate reader assay) is reported as “EC50 = Inactive”.

Regarding `CC(=O)Nc1ccc([N+](=O)[O-])cc1-c1nc2cccc3c2n(c1=O)CCO3` [Compound 16, N-(4-nitro-2-(5-oxo-2,3-dihydro-5H-[1,4]oxazino[4,3,2-de]quinoxalin-6-yl)phenyl) acetamide], the 50% effective concentration (EC50) (read-out: EC50, constrained ring analogs, plate reader assay) turned out to be 820 nM.

Take `COC(=O)c1ccc(N)c(-c2nc3ccccc3n(Cc3ccccc3)c2=O)c1` [Compound 1j, Methyl 4-amino-3-(4-benzyl-3-oxo-3,4-dihydroquinoxalin-2-yl)benzoate]: the midpoint of the response, the EC50, lay at 1000 nM. Also, the EC50 under setting [1] came to 550 nM.

With `Nc1ccc(I)cc1-c1nc2ccccc2n(Cc2ccccc2[N+](=O)[O-])c1=O` [CFTRact-J143, 3-(2-Amino-5-iodophenyl)-1-(2-nitrobenzyl)quinoxalin-2(1H)-one], the 50% effective concentration (EC50) is greater than 25000 nM.

As for `O=c1c(-c2ccc(C(F)(F)F)cc2)nc2ccccc2n1Cc1ccccc1` [Compound 1f, 1-Benzyl-3-(4-(trifluoromethyl)phenyl)quinoxalin-2(1H)-one], under setting [1], the half-maximal effective concentration (EC50) was 1000 nM.

On to `CC(=O)Nc1ccccc1-c1nc2ccccc2n(CCc2ccccc2)c1=O` [CFTRact-J061], for which the EC50 was roughly 20000 nM.

On to `CC(=O)Nc1ccc([N+](=O)[O-])cc1-c1nc2ccccc2n(Cc2ccccc2)c1=O` [CFTRact-J109, N-(2-(4-Benzyl-3-oxo-3,4-dihydroquinoxalin-2-yl)-4-nitrophenyl)-acetamide], for which the EC50 is 1500 nM.

Consider `Nc1ccc([N+](=O)[O-])cc1-c1nc2cc(F)ccc2n(Cc2ccccc2)c1=O` [CFTRact-J105, 3-(2-Amino-5-nitrophenyl)-1-benzyl-6-fluoroquinoxalin-2(1H)-one], for which the half-maximal effective concentration (EC50) was 530 nM.

As for `CC(=O)Nc1ccccc1-c1nc2ccccc2n(Cc2ccccc2)c1=O` [CFTRact-J057], the “CFTR activity of commercial analogs relative to CFTRact-J027” value was “greatly reduced activity” and the half-maximal effective concentration (EC50) was roughly 15000 nM.

The molecule `Nc1ccc([N+](=O)[O-])cc1-c1nc2ccccc2n(Cc2cccc(Br)c2)c1=O` [CFTRact-J103, 3-(2-Amino-5-nitrophenyl)-1-(3-bromobenzyl)quinoxalin-2(1H)-one] had an EC50 of 1200 nM.

`Cn1c(=O)c(-c2cccc([N+](=O)[O-])c2)nc2ccccc21` [Compound 3b, 1-Methyl-3-(3-nitrophenyl)quinoxalin-2(1H)-one] had a half-maximal effective concentration (EC50) greater than 10000 nM.

`Nc1ccc(F)cc1-c1nc2ccccc2n(Cc2ccccc2)c1=O` [CFTRact-J133, 3-(2-Amino-5-fluorophenyl)-1-benzylquinoxalin-2(1H)-one] came in with a 50% effective concentration (EC50) of 790 nM.
